Tests used:
Format in all cases: cell-based, human
STING = STING pathway activation / CXCL10 ELISA in MPM cell lines; conditions: multiple MPM cell lines treated in vitro
Description: (§1) Cytokine analysis. CXCL10 ELISA (R&D Systems DIP100) and granzyme B ELISA (R&D systems DY008) were performed according to manufacturer's instructions on conditioned media collected from cell culture. Cytokine analysis of conditioned media after 3 days of explant (S1) culture (FIG. 9B) utilized the MSD U-PLEX Viral Combo 1 assay (Hu: K15343K-2), which was performed according to manufacturer's instructions.
Cell culture. MPM cell lines were cultured in RPMI-1640 (Thermo Fisher Scientific) supplemented with 10% FBS (Gemini Bio-products). H226, H28, MSTO-211H, H2452 and H2052 were purchased from ATCC. MS428 was provided by the Richards Lab. H2461 and H2591 were provided to Dr. Janne by the NIH (Pass et al., Ann. Thorac. Surg. 59:835-44 (1995)). JMN1B (Demetri et al., Blood 74:940-6 (1989)) and MS589 (Gordon et al., Am. J. Pathol. 166:1827-40 (2005)) were derived at BWH/DFCI and shared internally with permission. All experiments were performed before reaching 10 passages. Mycoplasma infection was regularly checked by PCR using the conditioned media derived from each cell line with primers as previously described (Kitajima et al., Cancer Discov. 9:34-45 (2019)).
Immunoblotting. Cells were lysed in RIPA buffer containing 1× protease inhibitors (Roche 11-836-145-001) and phosphatase inhibitors (50 mmol/L NaF and 100 mmol/L Na3VO4). […]

MPM cell lines = assay: CellTiter-Glo viability in MPM cell lines; conditions: cultured in vitro
Description: CellTiter-Glo luminescent cell viability assay. Cell viability was assessed using the CellTiter-Glo Luminescent Cell Viability assay (Promega, G7571) according to manufacturer's instructions. […] All conditions were tested in triplicate and plates were read on a Tecan Infinite Mplex Microplate Reader.

granzyme B = assay: Granzyme B ELISA, NK / MPM co-culture; conditions: only in co-culture with MPM cells expressing STING
Description: as §1

H2591 MPM cells = assay: NK cell migration assay towards H2591 spheroids
Description: NK cell infiltration assay. Immune cell infiltration was assessed as previously described (Kitajima et al., Cancer Discov. 9:34-45 (2019); Mahadevan et al., Cancer Discov. 11:1952-1969 (2021)). Briefly, mesothelioma cancer cell spheroids (H2591, H2461, H226) were generated by seeding 5×10^5 cells in suspension in a ULA dish for 24 hours. […] Samples were then pelleted and resuspended in type I rat tail collagen (Corning) at a concentration of 2.5 mg/mL following the addition of 10×PBS with phenol red and pH adjustment using NaOH. pH 7.0-7.5 was confirmed using PANPEHA Whatman paper (Sigma-Aldrich). Cells and collagen were kept on ice to prevent polymerization. […]
For quantification, images were captured on a Nikon Eclipse 80i fluorescence microscope equipped with Z-stack (Prior) and CoolSNAP CCD camera (Roper Scientific). […] Quantification of immune cell infiltration into the 3D tumor microenvironment was performed by measuring the total cell area of cell tracker dye in the entire gel region. For the experiment with the CXCR3 neutralizing antibody (R&D MAB160; FIG. 6B), staining was quantified in a square region in the center of the channel to focus on effects of CXCR3 ligands released by tumor cells. Percent dead cell quantification was performed as in PDOTS as described above. […]

Nc1ncnc2c1ncn2[C@@H]1O[C@@H]2COP(=O)([S-])O[C@@H]3[C@H](O)[C@@H](COP([O-])(=S)O[C@H]2[C@H]1O)O[C@H]3n1cnc2c(N)ncnc21.[Na+].[Na+] (some centres unmarked) [ADU-S100]
STING pathway activation, CXCL10 secretion (STING): potent pathway activation | cytotoxicity in MPM cell lines (MPM cell lines): did not cause cytotoxicity | granzyme release by NK cells (granzyme B): enhanced | migration of cNK cells (H2591 MPM cells): increased migration | migration of cNK overexpressing CXCR3 (H2591 MPM cells): decreased migration

From patent US20260183396A1, “CXCR3 OVEREXPRESSION IN CAR-NK CELLS PRIMES MIGRATION/HOMING INTO THE TUMOR MICROENVIRONMENT” (DANA-FARBER CANCER INSTITUTE, INC., priority 2022, published 2026)
